Data reported in patent US20200113181A1, “HERBICIDAL COMPOUNDS” (SYNGENTA PARTICIPATIONS AG, priority 2016, published 2020).

Experiments:
Assay type in all cases: in vivo
[1] = test system: Lolium perenne (LOLPE); assay: Glasshouse herbicide test, pre- and post-emergence, Lolium perenne; conditions: 250 g/h, evaluated after 13 days; for LOLPE POST, percentage damage caused to the plant (five point scale): post-emergence; for LOLPE PRE, percentage damage caused to the plant (five point scale): pre-emergence
Method: (§1) Seeds of a variety of test species are sown in standard soil in pots (Lolium perenne (LOLPE), Setaria faberi (SETFA), Alopecurus myosuroides (ALOMY), Echinochloa crus-galli (ECHCG), Avena fatua (AVEFA)). After cultivation for one day (pre-emergence) or after 8 days cultivation (post-emergence) under controlled conditions in a glasshouse (at 24/16° C., day/night; 14 hours light; 65% humidity), the plants are sprayed with an aqueous spray solution derived from the formulation of the technical active ingredient in acetone/water (50:50) solution containing 0.5% Tween 20 (polyoxyethelyene sorbitan monolaurate, CAS RN 9005-64-5). Compounds are applied at […]. The test plants are then grown in a glasshouse under controlled conditions in a glasshouse (at 24/16° C., day/night; 14 hours light; 65% humidity) and watered twice daily. After 13 days for pre and post-emergence, the test is evaluated for the percentage damage caused to the plant. The biological activities are shown in the following table on a five point scale (5=80-100%; 4=60-79%; 3=40-59%; 2=20-39%; 1=0-19%).

[2] = test system: Setaria faberi (SETFA); assay: Glasshouse herbicide test, pre- and post-emergence, Setaria faberi; conditions: 250 g/h, evaluated after 13 days; for SETFA POST, percentage damage caused to the plant (five point scale): post-emergence; for SETFA PRE, percentage damage caused to the plant (five point scale): pre-emergence
Method: as §1

[3] = test system: Echinochloa crus-galli (ECHCG); assay: Glasshouse herbicide test, pre- and post-emergence, Echinochloa crus-galli; conditions: 250 g/h, evaluated after 13 days; for ECHCG POST, percentage damage caused to the plant (five point scale): post-emergence; for ECHCG PRE, percentage damage caused to the plant (five point scale): pre-emergence
Method: as §1

[4] = test system: Avena fatua (AVEFA); assay: Glasshouse herbicide test, pre- and post-emergence, Avena fatua; conditions: 250 g/h, evaluated after 13 days; for AVEFA POST, percentage damage caused to the plant (five point scale): post-emergence; for AVEFA PRE, percentage damage caused to the plant (five point scale): pre-emergence
Method: as §1

[5] = test system: Alopecurus myosuroides (ALOMY); assay: Glasshouse herbicide test, pre- and post-emergence, Alopecurus myosuroides; conditions: 250 g/h, evaluated after 13 days; for ALOMY POST, percentage damage caused to the plant (five point scale): post-emergence; for ALOMY PRE, percentage damage caused to the plant (five point scale): pre-emergence
Method: as §1

SMILES | LOLPE POST, percentage damage caused to the plant (five point scale) [1] | LOLPE PRE, percentage damage caused to the plant (five point scale) [1] | SETFA POST, percentage damage caused to the plant (five point scale) [2] | SETFA PRE, percentage damage caused to the plant (five point scale) [2] | ECHCG POST, percentage damage caused to the plant (five point scale) [3] | ECHCG PRE, percentage damage caused to the plant (five point scale) [3] | AVEFA POST, percentage damage caused to the plant (five point scale) [4] | AVEFA PRE, percentage damage caused to the plant (five point scale) [4] | ALOMY POST, percentage damage caused to the plant (five point scale) [5] | ALOMY PRE, percentage damage caused to the plant (five point scale) [5]
CC#Cc1ccc(C2=C(OC(=O)C(C)C)[C@@H]3[C@H](C2=O)[C@H]2CC[C@@H]3O2)c(OC)c1 (racemic) [Compound 1.1, isobutyric acid 4-(2-methoxy-4-prop-1-ynyl-phenyl)-5-oxo-10-oxa-tricyclo[5.2.1.0^2,6]dec-3-en-3-yl ester] | 5 (5=80-100%) | 5 (5=80-100%) | 5 (5=80-100%) | 5 (5=80-100%) | 5 (5=80-100%) | 5 (5=80-100%) | 5 (5=80-100%) | 5 (5=80-100%) | – | –
CC#Cc1ccc(C2C(=O)[C@@H]3[C@@H]4O[C@@H](C[C@@H]4C)[C@@H]3C2=O)c(OC)c1 (mixture of isomers) [Compound 1.3] | 5 (5=80-100%) | 5 (5=80-100%) | 5 (5=80-100%) | 5 (5=80-100%) | 5 (5=80-100%) | 5 (5=80-100%) | 5 (5=80-100%) | 5 (5=80-100%) | 5 (5=80-100%) | 5 (5=80-100%)
CC#Cc1ccc(C2C(=O)[C@H]3[C@@H]4CC[C@@](C)(O4)[C@H]3C2=O)c(OC)c1 (mixture of isomers) [Compound 1.5] | 5 (5=80-100%) | 5 (5=80-100%) | 5 (5=80-100%) | 5 (5=80-100%) | 5 (5=80-100%) | 5 (5=80-100%) | 5 (5=80-100%) | 5 (5=80-100%) | 5 (5=80-100%) | 5 (5=80-100%)
CC#Cc1ccc(C2C(=O)[C@H]3[C@@H]4C=C[C@@](C)(O4)[C@H]3C2=O)c(OC)c1 (mixture of isomers) [Compound 1.6] | 5 (5=80-100%) | 5 (5=80-100%) | 5 (5=80-100%) | 5 (5=80-100%) | 5 (5=80-100%) | 5 (5=80-100%) | 5 (5=80-100%) | 3 (3=40-59%) | 2 (2=20-39%) | 5 (5=80-100%)
CC#Cc1ccc(C2C(=O)[C@@H]3[C@@H]4O[C@@H](C[C@@H]4COC)[C@@H]3C2=O)c(OC)c1 (mixture of isomers) [Compound 1.9, 8-methoxymethyl-4-[2-methoxy-4-(prop-1-yn-1-yl)phenyl]-10-oxatricyclo[5.2.1.0^2,6]decane-3,5-dione] | 5 (5=80-100%) | 5 (5=80-100%) | 5 (5=80-100%) | 5 (5=80-100%) | 5 (5=80-100%) | 5 (5=80-100%) | 5 (5=80-100%) | 5 (5=80-100%) | 5 (5=80-100%) | 5 (5=80-100%)
CC#Cc1ccc(C2C(=O)[C@H]3[C@@H]4CC[C@@](COC)(O4)[C@H]3C2=O)c(OC)c1 (mixture of isomers) [Compound 1.12] | 5 (5=80-100%) | 5 (5=80-100%) | 5 (5=80-100%) | 5 (5=80-100%) | 5 (5=80-100%) | 5 (5=80-100%) | 5 (5=80-100%) | 5 (5=80-100%) | 5 (5=80-100%) | 5 (5=80-100%)
CC#Cc1ccc(C2C(=O)[C@@H]3[C@@H]4O[C@@H](C[C@@H]4CO)[C@@H]3C2=O)c(OC)c1 (mixture of isomers) [Compound 1.14] | 4 (4=60-79%) | – | 5 (5=80-100%) | – | 5 (5=80-100%) | – | 5 (5=80-100%) | – | 3 (3=40-59%) | –
CC#Cc1ccc(C2C(=O)[C@@H]3[C@@H]4O[C@@H](C[C@H]4COC)[C@@H]3C2=O)c(OC)c1 (mixture of isomers) [Compound 1.15] | 5 (5=80-100%) | 5 (5=80-100%) | 5 (5=80-100%) | 5 (5=80-100%) | 5 (5=80-100%) | 5 (5=80-100%) | 5 (5=80-100%) | 5 (5=80-100%) | 5 (5=80-100%) | 5 (5=80-100%)
CC#Cc1ccc(C2C(=O)[C@@H]3[C@H](C2=O)[C@H]2C=C(C)[C@@H]3O2)c(OC)c1 (mixture of isomers) [Compound 1.16] | 5 (5=80-100%) | 5 (5=80-100%) | 5 (5=80-100%) | 5 (5=80-100%) | 5 (5=80-100%) | 5 (5=80-100%) | 5 (5=80-100%) | 5 (5=80-100%) | 5 (5=80-100%) | 5 (5=80-100%)
CC#Cc1ccc(C2C(=O)[C@@H]3[C@@H]4O[C@@H](C[C@H]4/C=N/OC)[C@@H]3C2=O)c(OC)c1 (mixture of isomers) [Compound 1.17] | 5 (5=80-100%) | 5 (5=80-100%) | 5 (5=80-100%) | 5 (5=80-100%) | 5 (5=80-100%) | 5 (5=80-100%) | 5 (5=80-100%) | 5 (5=80-100%) | 5 (5=80-100%) | 5 (5=80-100%)
CC#Cc1ccc(C2C(=O)[C@@H]3[C@@H]4O[C@@H](C[C@@H]4C4OCCO4)[C@@H]3C2=O)c(OC)c1 (mixture of isomers) [Compound 1.18] | 5 (5=80-100%) | 5 (5=80-100%) | 5 (5=80-100%) | 5 (5=80-100%) | 5 (5=80-100%) | 5 (5=80-100%) | 5 (5=80-100%) | 4 (4=60-79%) | 5 (5=80-100%) | 4 (4=60-79%)
CC#Cc1ccc(C2C(=O)[C@@H]3[C@@H]4O[C@@H](C[C@@H]4OC)[C@@H]3C2=O)c(OC)c1 (mixture of isomers) [Compound 1.25] | 5 (5=80-100%) | 5 (5=80-100%) | 5 (5=80-100%) | 5 (5=80-100%) | 5 (5=80-100%) | 5 (5=80-100%) | 5 (5=80-100%) | 5 (5=80-100%) | 5 (5=80-100%) | 5 (5=80-100%)
